Source: PubChem BioAssay AID1259407 (Chemical Carcinogenesis Research Information System (CCRIS), 2018)
The source made the active and inactive calls. No rule for the calls is given here.

Test system: CCRIS mutagenicity, Ames/micronucleus/aberration tests
Test: CCRIS mutagenicity studies
[1] = Test System: AMES SALMONELLA TYPHIMURIUM, Strain/Indicator: TA98, Metabolic Activation: NONE, Method: PREINCUBATION
[2] = Test System: AMES SALMONELLA TYPHIMURIUM, Strain/Indicator: TA100, Metabolic Activation: NONE, Method: PREINCUBATION
[3] = Test System: AMES SALMONELLA TYPHIMURIUM, Strain/Indicator: TA97, Metabolic Activation: NONE, Method: PREINCUBATION
[4] = Test System: AMES SALMONELLA TYPHIMURIUM, Strain/Indicator: TA1535, Metabolic Activation: NONE, Method: PREINCUBATION
[5] = Test System: AMES SALMONELLA TYPHIMURIUM, Strain/Indicator: TA1537, Metabolic Activation: NONE, Method: PREINCUBATION
[6] = Test System: AMES SALMONELLA TYPHIMURIUM, Strain/Indicator: TA100, Metabolic Activation: NONE, Method: STANDARD PLATE

SMILES: Clc1cc2c3nc4[n-]c(nc5nc(nc6nc(nc([n-]3)c2c(Cl)c1Cl)-c1c(Cl)c(Cl)c(Cl)c(Cl)c1-6)-c1c(Cl)c(Cl)c(Cl)c(Cl)c1-5)c1c(Cl)c(Cl)c(Cl)c(Cl)c41.[Cu+2]
- mutagenic call (Test System: AMES SALMONELLA TYPHIMURIUM, Strain/Indicator: TA98, Metabolic Activation: HAMSTER, LIVER, S-9, AROCLOR 1254 (30%), Method: PREINCUBATION): active; positive
- mutagenic call [1]: inactive; negative
- mutagenic call (Test System: AMES SALMONELLA TYPHIMURIUM, Strain/Indicator: TA98, Metabolic Activation: RAT, LIVER, S-9, AROCLOR 1254 (30%), Method: PREINCUBATION): active; positive
- mutagenic call (Test System: AMES SALMONELLA TYPHIMURIUM, Strain/Indicator: TA100, Metabolic Activation: HAMSTER, LIVER, S-9, AROCLOR 1254 (30%), Method: PREINCUBATION): inactive; negative
- mutagenic call [2]: inactive; negative
- mutagenic call (Test System: AMES SALMONELLA TYPHIMURIUM, Strain/Indicator: TA100, Metabolic Activation: RAT, LIVER, S-9, AROCLOR 1254 (30%), Method: PREINCUBATION): inactive; negative

SMILES: CC(=O)OO[N+](=O)[O-]
- mutagenic call (Test System: AMES SALMONELLA TYPHIMURIUM, Strain/Indicator: TA100, Metabolic Activation: NONE): active; positive
- mutagenic call (Test System: AMES SALMONELLA TYPHIMURIUM, Strain/Indicator: TA100, Metabolic Activation: RAT, LIVER, S-9, AROCLOR 1254): active; positive

SMILES: CC(COC(=O)c1ccccc1)(COC(=O)c1ccccc1)COC(=O)c1ccccc1
- mutagenic call (Test System: AMES SALMONELLA TYPHIMURIUM, Strain/Indicator: TA97, Metabolic Activation: HAMSTER, LIVER, S-9, AROCLOR 1254 (10 OR 30%), Method: PREINCUBATION): inactive; negative
- mutagenic call [3]: inactive; negative
- mutagenic call (Test System: AMES SALMONELLA TYPHIMURIUM, Strain/Indicator: TA97, Metabolic Activation: RAT, LIVER, S-9, AROCLOR 1254 (10 OR 30%), Method: PREINCUBATION): inactive; negative
- mutagenic call (Test System: AMES SALMONELLA TYPHIMURIUM, Strain/Indicator: TA98, Metabolic Activation: HAMSTER, LIVER, S-9, AROCLOR 1254 (10 OR 30%), Method: PREINCUBATION): inactive; negative
- mutagenic call [1]: inactive; negative
- mutagenic call (Test System: AMES SALMONELLA TYPHIMURIUM, Strain/Indicator: TA98, Metabolic Activation: RAT, LIVER, S-9, AROCLOR 1254 (10 OR 30%), Method: PREINCUBATION): inactive; negative
- mutagenic call (Test System: AMES SALMONELLA TYPHIMURIUM, Strain/Indicator: TA100, Metabolic Activation: HAMSTER, LIVER, S-9, AROCLOR 1254 (10 OR 30%), Method: PREINCUBATION): inactive; negative
- mutagenic call [2]: inactive; negative
- mutagenic call (Test System: AMES SALMONELLA TYPHIMURIUM, Strain/Indicator: TA100, Metabolic Activation: RAT, LIVER, S-9, AROCLOR 1254 (10 OR 30%), Method: PREINCUBATION): inactive; negative
- mutagenic call (Test System: AMES SALMONELLA TYPHIMURIUM, Strain/Indicator: TA1535, Metabolic Activation: HAMSTER, LIVER, S-9, AROCLOR 1254 (10 OR 30%), Method: PREINCUBATION): inactive; negative
- mutagenic call [4]: inactive; negative
- mutagenic call (Test System: AMES SALMONELLA TYPHIMURIUM, Strain/Indicator: TA1535, Metabolic Activation: RAT, LIVER, S-9, AROCLOR 1254 (10 OR 30%), Method: PREINCUBATION): inactive; negative
- mutagenic call (Test System: AMES SALMONELLA TYPHIMURIUM, Strain/Indicator: TA1537, Metabolic Activation: HAMSTER, LIVER, S-9, AROCLOR 1254 (30%), Method: PREINCUBATION): inactive; negative
- mutagenic call [5]: inactive; negative
- mutagenic call (Test System: AMES SALMONELLA TYPHIMURIUM, Strain/Indicator: TA1537, Metabolic Activation: RAT, LIVER, S-9, AROCLOR 1254 (30%), Method: PREINCUBATION): inactive; negative

SMILES: c1ccc2[nH]ccc2c1
- mutagenic call [3]: inactive; negative
- mutagenic call (Test System: AMES SALMONELLA TYPHIMURIUM, Strain/Indicator: TA97, Metabolic Activation: RAT, LIVER, S-9, AROCLOR 1254, Method: PREINCUBATION): inactive; negative
- mutagenic call [2]: inactive; negative
- mutagenic call (Test System: AMES SALMONELLA TYPHIMURIUM, Strain/Indicator: TA102, Metabolic Activation: NONE, Method: PREINCUBATION): inactive; negative
- mutagenic call (Test System: AMES SALMONELLA TYPHIMURIUM, Strain/Indicator: TA102, Metabolic Activation: RAT, LIVER, S-9, AROCLOR 1254, Method: PREINCUBATION): inactive; negative

SMILES: C[n+]1cccc2c1C=C[C@H]1O[C@@H]21
- mutagenic call [6]: inactive; negative
- mutagenic call (Test System: AMES SALMONELLA TYPHIMURIUM, Strain/Indicator: TA100, Metabolic Activation: RAT, LIVER, S-9, AROCLOR 1254 (20%), Method: STANDARD PLATE): active; positive

SMILES: Cc1c2ccccc2c(CBr)c2c1ccc1ccccc12
- mutagenic call (Test System: AMES SALMONELLA TYPHIMURIUM, Strain/Indicator: TA98, Metabolic Activation: NONE, Method: STANDARD PLATE): active; positive
- mutagenic call [6]: active; positive

SMILES: Oc1cccc2cc3c4ccccc4c4ccccc4c3cc12
- mutagenic call (Test System: AMES SALMONELLA TYPHIMURIUM, Strain/Indicator: TA100, Metabolic Activation: RAT, LIVER, S-9, AROCLOR 1254, Method: PREINCUBATION): active; positive

SMILES: CC[C@@]1(O)C[C@H](O[C@H]2C[C@H](N(C)C)[C@H](O)[C@H](C)O2)c2c(cc3c(c2O)C(=O)c2c(O)cccc2C3=O)[C@H]1C(=O)OC
- mutagenic call (Test System: AMES SALMONELLA TYPHIMURIUM, Strain/Indicator: TA102, Metabolic Activation: NONE, Method: STANDARD PLATE): active; positive
- mutagenic call (Test System: AMES SALMONELLA TYPHIMURIUM, Strain/Indicator: TA104, Metabolic Activation: NONE, Method: STANDARD PLATE): active; positive

SMILES: NNc1ccccc1
- mutagenic call (End Point: IN VITRO CHROMOSOMAL ABERRATIONS, Test System: CHL CELLS, Metabolic Activation: NONE): active; positive (structural changes)
- mutagenic call (End Point: IN VITRO CHROMOSOMAL ABERRATIONS, Test System: CHL CELLS, Metabolic Activation: RAT, LIVER, S-9, SODIUM PHENOBARBITAL AND 5,6-BENZOFLAVONE): active; positive (structural changes); authors report equivocal results for ploidy chang
- mutagenic call [1]: active; positive
- mutagenic call (Test System: AMES SALMONELLA TYPHIMURIUM, Strain/Indicator: TA98, Metabolic Activation: RAT LIVER S-9, PHENOBARBITAL AND BETA-NAPHTHOFLAVONE, Method: PREINCUBATION): active; positive
- mutagenic call [2]: inactive; negative
- mutagenic call [6]: active; positive
- mutagenic call (Test System: AMES SALMONELLA TYPHIMURIUM, Strain/Indicator: TA100, Metabolic Activation: RAT KIDNEY, MICROSOMES, Method: STANDARD PLATE): active; positive
- mutagenic call (Test System: AMES SALMONELLA TYPHIMURIUM, Strain/Indicator: TA100, Metabolic Activation: RAT LIVER S-9, PHENOBARBITAL AND BETA-NAPHTHOFLAVONE, Method: PREINCUBATION): inactive; negative
- mutagenic call (Test System: AMES SALMONELLA TYPHIMURIUM, Strain/Indicator: TA1530, Metabolic Activation: NONE, Method: STANDARD PLATE): active; positive
- mutagenic call [4]: inactive; negative
- mutagenic call (Test System: AMES SALMONELLA TYPHIMURIUM, Strain/Indicator: TA1535, Metabolic Activation: RAT LIVER S-9, PHENOBARBITAL AND BETA-NAPHTHOFLAVONE, Method: PREINCUBATION): inactive; negative
- mutagenic call (Test System: AMES SALMONELLA TYPHIMURIUM, Strain/Indicator: TA1535, Metabolic Activation: RAT, LIVER, S-9, AROCLOR 1254, Method: PREINCUBATION): inactive; negative
- mutagenic call [5]: active; positive
- mutagenic call (Test System: AMES SALMONELLA TYPHIMURIUM, Strain/Indicator: TA1537, Metabolic Activation: RAT LIVER S-9, PHENOBARBITAL AND BETA-NAPHTHOFLAVONE, Method: PREINCUBATION): active; positive
- mutagenic call (Test System: AMES SALMONELLA TYPHIMURIUM, Strain/Indicator: TA1537, Metabolic Activation: RAT, LIVER, S-9, AROCLOR 1254, Method: PREINCUBATION): active; positive
- mutagenic call (Test System: AMES SALMONELLA TYPHIMURIUM, Strain/Indicator: TA2638, Metabolic Activation: NONE, Method: STANDARD PLATE): active; positive
- mutagenic call (Test System: E. COLI, Strain/Indicator: WP2 (PKM101), Metabolic Activation: NONE, Method: STANDARD PLATE): active; positive
- mutagenic call (Test System: E. COLI, Strain/Indicator: WP2 UVRA (PKM101), Metabolic Activation: NONE, Method: STANDARD PLATE): active; positive
- mutagenic call (Test System: E.COLI, Strain/Indicator: WP2UVRA, Metabolic Activation: NONE, Method: PREINCUBATION): active; positive
- mutagenic call (Test System: E.COLI, Strain/Indicator: WP2UVRA, Metabolic Activation: RAT LIVER S-9, PHENOBARBITAL AND BETA-NAPHTHOFLAVONE, Method: PREINCUBATION): active; positive
